Data reported in patent US10183011B2, “Anti-depression compounds” (Board of Regents of the University of Texas System, priority 2009, dated 2019).

Tests used:
[1] = test system: hippocampal neurogenesis in the DG; experiment: Comparison of P7C3 compounds and antidepressant drugs: DG BrdU labeling after i.c.v. infusion; assay type: in vivo, mouse; conditions: 10 μM i.c.v. for 7 days
From the text: The neuroprotective efficacies of both P7C3 and P7C3-A20 were next compared to currently marketed antidepressant medications, using screening conditions identical to those by which P7C3 was originally discovered. This experiment was based on the antidepressant actions of P7C3 and P7C3-A20 characterized here, and the dependence on hippocampal neurogenesis for behavioral efficacy of some marketed antidepressant medications in mice.
Proneurogenic efficacies in the DG of P7C3 and P7C3A20 were compared to those of vehicle (artificial cerebrospinal fluid) and several marketed antidepressant compounds (Sigma-Aldrich, St. Louis, Mo.) according to established methods. In brief, mice were housed individually in cages without running wheels or any form of environmental enrichment, in order to create an environment predicted to have as low of a baseline level of hippocampal neurogenesis as possible. Compounds (10 μM, i.c.v.) were administered for 7 days via subcutaneously implanted Alzet osmotic minipumps connected to a cannula directed into the left lateral ventricle, with implantation day designated as day 0. Starting on day 1, mice also received daily injections of BrdU (50 mg/kg, i.p.) at 9 am daily, for 6 days. Twenty four hours after the sixth BrdU injection, mice were transcardially perfused as described above.

[2] = test system: Ghsr-null and wild-type mice; experiment: Social interaction test after CSDS; assay type: in vivo, mouse
From the text: FIG. 41. Effects of P7C3 on CSDS-induced depressive-like behavior, as measured by the social interaction test. (a, b) Times spent in the interaction zone with target present for wild-type (a) and Ghsr-null (b) mice. (c, d) Times spent in the corners by wild-type (c) and Ghsr-null (d) mice. Group sizes indicated. *P<0.05, **P<0.01, as compared to respective vehicle-treated control group.
Next, P7C3 and two chemical analogs were employed to investigate whether P7C3-mediated preservation of ventral DG neurogenesis during CSDS might correlate with an antidepressant-like behavioral effect. […] Conversely, the analog P7C3-S184 (Example 178) replaces bromines on the carbazole moiety with chlorines and the aniline moiety with a naphthyl amine, leaving the analog completely devoid of neuroprotective activity.
CSDS was performed similar to methods used previously in the lab (J. C. Chuang et al., Ghrelin mediates stress-induced food-reward behavior in mice. J Clin Invest 121, 2684 (2011)). Test mice were housed individually in large cages paired with a CD1 aggressor mouse, separated by a plastic divider with holes so as to allow sensory contact. For 5 min a day, the plastic divider was removed, exposing test mice to the CD1 mouse. After 5 min of exposure to the CD1 mouse, test mice were again separated and paired with a new CD1 mouse for the remainder of the 24 hours. This process was repeated for 10 days. Following the 5 min sensory contact on the 10th day, mice were separated and singly housed prior to social interaction test. Control mice were housed in equivalent cages with members of the same strain and handled daily. The social interaction test consists of placing mice in an arena with a small cage at one end. The movements of test mice were tracked for 2.5 min in the absence of another mouse, followed by 2.5 min in the presence of a novel CD1 mouse, or the “target”. Ethovision 3.0 software (Noldus, Leesburg, Va.) measured the duration spent in the interaction zone or in the corners. As done previously, data is presented as time spent in the interaction zone when the target is present or time spent in the corners when the target is present (J. C. Chuang et al., Ghrelin mediates stress-induced food-reward behavior in mice. J Clin Invest 121, 2684 (2011)).

aged Fisher 344 rats = experiment: Aged rats: hippocampal neurogenesis, Morris water maze, apoptosis, body weight; assay type: in vivo, rat (Fisher 344)
Description: FIG. 20A, FIG. 20B, FIG. 20C, FIG. 20D and FIG. 20E: Effect of Example 45 Compound in aged rats. (FIG. 20A) Example 45 Compound (20 mg/kg/d, i.p.) and BrdU (50 mg/kg, i.p.) were administered daily for 7 days to 12-18 month old Fisher 344 rats (n=4 in each group). P7C3 promoted neural precursor cell proliferation by roughly 5 fold compared to vehicle. (*p<0.001, Students t test). […] These micrographs were taken at the same magnification. Scale bar=[…]. Data are expressed as mean+/−SEM. […] Data are expressed as mean+/−SEM. […] Data are expressed as mean+/−SEM.
Many more of the BrdU-labeled cells were noted to have migrated into the granular layer in Example 45 Compound-treated rats in comparison to vehicle treated animals, consistent with their functional incorporation into the dentate gyrus as properly wired neurons. The scale bar represents […]. […] The scale bar represents […]. […] In all graphs data are expressed as mean±SEM.
It was first evaluated whether Example 45 Compound would enhance hippocampal neurogenesis in aged rats as it does in adult mice. Rats were injected with a daily, IP dose of either […] of Example 45 Compound or vehicle, coinjected with a daily dose of BrdU, and then sacrificed after 7 days for immunohistochemistry. […] Having observed proneurogenic efficacy of Example 45 Compound in this short term assay, it was then tested whether prolonged administration of Example 45 Compound might ameliorate age-related decline in cognition by subjecting 18-month-old rats to daily administration of either […] of Example 45 Compound or vehicle only for 2 months. Animals of both groups were further subjected to weekly IP administration of BrdU (50 mg/kg) for later immunohistochemical measurements of hippocampal neurogenesis. As a control, both Example 45 Compound- and vehicle-treated groups were confirmed to display equal ability to physically participate in the task, and learn the task, as shown by decreased latency times to find the hidden platform over the 5 day training period, both before and after 2 months of treatment (FIG. 20B). Moreover, neither swim speed (FIG. 20C) nor locomotor activity (FIG. 20D) varied with age or treatment paradigm.
After 2 months of compound or vehicle administration, cognitive ability was assessed blind to treatment group by removing the goal platform. Animals of the Example 45 Compound-treated group retained a statistically significant improvement in ability to navigate to the region of the missing platform, as evidenced by performance in the probe test.
After behavioral testing, animals were sacrificed for immunohistochemical detection of BrdU and CCSP3. […] Next it was tested whether Example 45 Compound-mediated preservation of body weight in aged rats operates via central or peripheral modes of action.

| Compound | increase of DG neurogenesis (BrdU labeling) over vehicle [1] | depression-like behavior, social interaction test ([2]; CSDS-exposed Ghsr-null mice) | depression-like behavior, social interaction test ([2]; CSDS-exposed wild-type mice) | social interaction test performance ([2]; non-CSDS-exposed control mice) | neural precursor cell proliferation (BrdU) compared to vehicle (aged Fisher 344 rats; daily i.p. for 7 days, 12-18 month old Fisher 344 rats) | apoptotic cells in the dentate gyrus (aged Fisher 344 rats; after 2 months of treatment) | level of BrdU-positive neurons in the dentate gyrus versus vehicle (aged Fisher 344 rats; after 2 months of treatment) | postfasting blood glucose levels (aged Fisher 344 rats; aged rats) | body weight with aging (aged Fisher 344 rats; aged rats, 2 months of treatment) | increase in BrdU labeling in the dentate gyrus relative to vehicle (aged Fisher 344 rats; daily IP for 7 days, aged rats) | crossings of the location previously containing the platform (aged Fisher 344 rats; probe test after 2 months of treatment) | percentage of time in the general goal area (quadrant previously containing the platform) (aged Fisher 344 rats; probe test after 2 months of treatment, vehicle 28.1%±2.6%) |
| --- | --- | --- | --- | --- | --- | --- | --- | --- | --- | --- | --- | --- |
| OC(CNc1ccccc1)Cn1c2ccc(Br)cc2c2cc(Br)ccc21 (centres unmarked) [Example P7C3] | about 100% | showed antidepressant efficacy | had no significant effect on depression-like behavior | Neither P7C3 nor the two tested analogs influenced social interaction test performance | roughly 5 fold | – | – | – | – | – | – | – |
| OC(CNc1ccccc1)Cn1c2ccc(Br)cc2c2cc(Br)ccc21 (centres unmarked) [Example 45 Compound] | – | – | – | – | – | statistically significant reduction in the number of CCSP3-positive cells | 3 fold | had no effect on postfasting blood glucose levels | helped rats maintain stable body weight with aging | 500% | significantly more often than vehicle-treated rats | 35.5%±2.2% |
| OC(CNc1cccc2ccccc12)Cn1c2ccc(Cl)cc2c2cc(Cl)ccc21 (centres unmarked) [Example P7C3-S184] | – | had no effect on stress-induced depressive-like behavior in either genotype | had no effect on stress-induced depressive-like behavior in either genotype | – | – | – | – | – | – | – | – | – |
